Data: patent US6479435B1, “Diaryl ethers and processes for their preparation and herbicidal and desiccant compositions containing them” (ISK Americas Incorporated, priority 1997, dated 2002)

Experiments:
Format in all cases: in vivo
[1] = tested on: green foxtail (Setaria viridis, SETVI); assay: Pre-emerge greenhouse herbicide test, phytotoxicity rating; settings: Setaria viridis, pre-emergence, 336 h, 14 days after application, rating scale 0-100; for pest or weed control at 125 g/ha: Rate 125 g al/ha; for pest or weed control at 500 g/ha: Rate 500 g al/ha
Outline: (§1)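 Visual 0–100 injury rating (100 = all plants dead) taken 14 days after treatment. Rates of 125–1000 g ai/ha in acetone, 187 l/ha, were sprayed onto soil one day post-sowing; pots were surface-watered to incorporate, then bottom-watered.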

[2] = tested on: velvetleaf (Abutilon theophrasti, ABUTH); assay: as above; settings: Abutilon theophrasti, pre-emergence, 336 h, 14 days after application, rating scale 0-100; for pest or weed control at 125 g/ha: Rate 125 g al/ha; for pest or weed control at 500 g/ha: Rate 500 g al/ha
Outline: as §1

[3] = tested on: large crabgrass (Digitaria sanguinalis, DIGSA); assay: as above; settings: Digitaria sanguinalis, pre-emergence, 336 h, 14 days after application, rating scale 0-100; for pest or weed control at 125 g/ha: Rate 125 g al/ha; for pest or weed control at 500 g/ha: Rate 500 g al/ha
Outline: as §1

[4] = tested on: ivyleaf morningglory (Ipomoea hederacea, IPOHE); assay: as above; settings: Ipomoea, pre-emergence, 336 h, 14 days after application, rating scale 0-100; for pest or weed control at 125 g/ha: Rate 125 g al/ha; for pest or weed control at 500 g/ha: Rate 500 g al/ha
Outline: as §1

[5] = tested on: redroot pigweed (Amaranthus retroflexus, AMARE); assay: as above; settings: Amaranthus retroflexus, pre-emergence, 336 h, 14 days after application, rating scale 0-100; for pest or weed control at 125 g/ha: Rate 125 g al/ha; for pest or weed control at 500 g/ha: Rate 500 g al/ha
Outline: as §1

[6] = tested on: lambsquarters (Chenopodium album, CHEAL); assay: as above; settings: Chenopodium album, pre-emergence, 336 h, 14 days after application, rating scale 0-100; for pest or weed control at 125 g/ha: Rate 125 g al/ha; for pest or weed control at 500 g/ha: Rate 500 g al/ha
Outline: as §1

[7] = tested on: green foxtail (Setaria viridis, SETVI); assay: Post-emerge greenhouse herbicide test, phytotoxicity rating; settings: Setaria viridis, post-emergence, 336 h, 14 days after application, scale 0-100; for pest or weed control at 63 g/ha: rate 63 g ai/ha; for pest or weed control at 500 g/ha: rate 500 g ai/ha
Outline: (§2)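 Scores use a 0 (no damage) to 100 (complete kill) scale, taken 14 days after a foliar spray. Acetone solutions with 0.25% v/v non-ionic surfactant were applied by track sprayer at 187 l/ha and 63-1000 g ai/ha to bottom-watered 2-3 leaf plants.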

[8] = tested on: velvetleaf (Abutilon theophrasti, ABUTH); assay: as above; settings: Abutilon theophrasti, post-emergence, 336 h, 14 days after application, scale 0-100; for pest or weed control at 63 g/ha: rate 63 g ai/ha; for pest or weed control at 500 g/ha: rate 500 g ai/ha
Outline: as §2

[9] = tested on: sicklepod (Cassia obtusifolia, CASOB); assay: as above; settings: Senna obtusifolia, post-emergence, 336 h, 14 days after application, scale 0-100; for pest or weed control at 63 g/ha: rate 63 g ai/ha; for pest or weed control at 500 g/ha: rate 500 g ai/ha
Outline: as §2

[10] = tested on: large crabgrass (Digitaria sanguinalis, DIGSA); assay: as above; settings: Digitaria sanguinalis, post-emergence, 336 h, 14 days after application, scale 0-100; for pest or weed control at 63 g/ha: rate 63 g ai/ha; for pest or weed control at 500 g/ha: rate 500 g ai/ha
Outline: as §2

[11] = tested on: ivyleaf morningglory (Ipomoea hederacea, IPOHE); assay: as above; settings: Ipomoea, post-emergence, 336 h, 14 days after application, scale 0-100; for pest or weed control at 63 g/ha: rate 63 g ai/ha; for pest or weed control at 500 g/ha: rate 500 g ai/ha
Outline: as §2

[12] = tested on: Johnsongrass (Sorghum halepense, SORHA); assay: as above; settings: Sorghum halepense, post-emergence, 336 h, 14 days after application, scale 0-100; for pest or weed control at 63 g/ha: rate 63 g ai/ha; for pest or weed control at 500 g/ha: rate 500 g ai/ha
Outline: as §2

[13] = tested on: barnyardgrass (Echinochloa crusgalli, ECHCG); assay: as above; settings: Echinochloa crus-galli, post-emergence, 336 h, 14 days after application, scale 0-100; for pest or weed control at 63 g/ha: rate 63 g ai/ha; for pest or weed control at 500 g/ha: rate 500 g ai/ha
Outline: as §2

[14] = tested on: redroot pigweed (Amaranthus retroflexus, AMARE); assay: as above; settings: Amaranthus retroflexus, post-emergence, 336 h, 14 days after application, scale 0-100; for pest or weed control at 63 g/ha: rate 63 g ai/ha; for pest or weed control at 500 g/ha: rate 500 g ai/ha
Outline: as §2

[15] = tested on: lambsquarters (Chenopodium album, CHEAL); assay: as above; settings: Chenopodium album, post-emergence, 336 h, 14 days after application, scale 0-100; for pest or weed control at 63 g/ha: rate 63 g ai/ha; for pest or weed control at 500 g/ha: rate 500 g ai/ha
Outline: as §2

O=c1n(-c2cc(Oc3ncccn3)c(Cl)cc2F)c(=S)n2n1CCCC2 [Compound 8-29, 2-[4-chloro-2-fluoro-5-(2-pyrimidyloxy)phenyl]hexahydro-3-thioxo-1H-[1,2,4]triazolo[1,2-a]pyridazin-1-one]
pest or weed control at 125 g/ha [1]: 100% | pest or weed control at 500 g/ha [1]: 100% | pest or weed control at 125 g/ha [2]: 100% | pest or weed control at 500 g/ha [2]: 100% | pest or weed control at 125 g/ha [3]: 100% | pest or weed control at 500 g/ha [3]: 100% | pest or weed control at 125 g/ha [4]: 100% | pest or weed control at 500 g/ha [4]: 100% | pest or weed control at 125 g/ha [5]: 100% | pest or weed control at 500 g/ha [5]: 100% | pest or weed control at 125 g/ha [6]: 100% | pest or weed control at 500 g/ha [6]: 100% | pest or weed control at 63 g/ha [7]: 90% | pest or weed control at 500 g/ha [7]: 100% | pest or weed control at 63 g/ha [8]: 100% | pest or weed control at 500 g/ha [8]: 100% | pest or weed control at 63 g/ha [9]: 100% | pest or weed control at 500 g/ha [9]: 100% | pest or weed control at 63 g/ha [10]: 50% | pest or weed control at 500 g/ha [10]: 100% | pest or weed control at 63 g/ha [11]: 100% | pest or weed control at 500 g/ha [11]: 100% | pest or weed control at 63 g/ha [12]: 90% | pest or weed control at 500 g/ha [12]: 100% | pest or weed control at 63 g/ha [13]: 80% | pest or weed control at 500 g/ha [13]: 100% | pest or weed control at 63 g/ha [14]: 100% | pest or weed control at 500 g/ha [14]: 100% | pest or weed control at 63 g/ha [15]: 100% | pest or weed control at 500 g/ha [15]: 100%

O=c1n(-c2cc(Oc3ncccc3C(F)(F)F)c(Cl)cc2F)c(=S)n2n1CCCC2 [Compound 8-18, 2-[4-chloro-2-fluoro-5-(3-trifluoromethyl-2pyridyloxy)phenyl]hexahydro-3-thioxo-1H-[1,2,4]triazolo[1,2-a]pyridazin-1-one]
pest or weed control at 125 g/ha [1]: 95% | pest or weed control at 500 g/ha [1]: 100% | pest or weed control at 125 g/ha [2]: 100% | pest or weed control at 500 g/ha [2]: 100% | pest or weed control at 125 g/ha [3]: 50% | pest or weed control at 500 g/ha [3]: 100% | pest or weed control at 125 g/ha [4]: 20% | pest or weed control at 500 g/ha [4]: 45% | pest or weed control at 125 g/ha [5]: 100% | pest or weed control at 500 g/ha [5]: 100% | pest or weed control at 125 g/ha [6]: 100% | pest or weed control at 500 g/ha [6]: 100% | pest or weed control at 63 g/ha [7]: 40% | pest or weed control at 500 g/ha [7]: 70% | pest or weed control at 63 g/ha [8]: 100% | pest or weed control at 500 g/ha [8]: 100% | pest or weed control at 63 g/ha [9]: 70% | pest or weed control at 500 g/ha [9]: 100% | pest or weed control at 63 g/ha [10]: 0% | pest or weed control at 500 g/ha [10]: 10% | pest or weed control at 63 g/ha [11]: 100% | pest or weed control at 500 g/ha [11]: 100% | pest or weed control at 63 g/ha [12]: 50% | pest or weed control at 500 g/ha [12]: 90% | pest or weed control at 63 g/ha [13]: 70% | pest or weed control at 500 g/ha [13]: 70% | pest or weed control at 63 g/ha [14]: 100% | pest or weed control at 500 g/ha [14]: 100% | pest or weed control at 63 g/ha [15]: 100% | pest or weed control at 500 g/ha [15]: 100%
